The source made the active and inactive calls. No cut-off for these calls is given here.
Experiments:
HL-60 = assay: Cytoprotection against human HL60 cells assessed as inhibition of H2O2-induced cell death pretreated for 1 hr followed by H2O2 stimulation measured after 3 hrs by p-iodonitrotetrazolium violet dye based LDH assay; assay type: functional
NIH3T3 [1] = assay: Inhibition of erastin-induced ferroptosis in mouse NIH/3T3 cells after 24 hrs by WST-8 assay; assay type: functional, cell-based; conditions: NIH3T3, 24 h
NIH3T3 [2] = assay: Inhibition of TBHP-induced ferroptosis in mouse NIH/3T3 cells after 12 hrs by WST-8 assay; assay type: functional, cell-based; conditions: NIH3T3, 12 h
Neutrophil [3] = assay: Inhibition of PMA-induced NETosis in human neutrophils at 100 uM preincubated for 30 mins followed by PMA stimulation and measured after 3 hrs by Hoechst […] staining based fluorescence microscopic analysis; assay type: functional, cell-based
Neutrophil [4] = assay: Inhibition of PMA-induced NETosis in human neutrophils assessed as effect on lipid peroxidation at 100 uM preincubated for 30 mins followed by PMA stimulation measured after 30 mins by C11-Bodipy fluorescent dye based flow cytometry; assay type: functional, cell-based
Neutrophil [5] = assay: Inhibition of PMA-induced superoxide production in C57BL6 mouse neutrophils at 100 uM preincubated for 30 mins followed by PMA stimulation and measured after 30 mins by luminol-lucignenin based luminescence assay; assay type: functional, cell-based
[6] = Aqueous solubility of compound in citrate-phosphate buffer at pH 7.0 after 30 mins by HPLC analysis; assay type: physicochemical
THP-1 [7] = assay: Inhibition of Staphylococcus aureus-induced pyroptosis in human THP1 cells at 10 uM preincubated for 1 hr followed by bacterial infection and measured after 2 hrs by INT dye based LDH assay; assay type: functional, cell-based
THP-1 [8] = assay: Inhibition of Pseudomonas aeruginosa-induced pyroptosis in human THP1 cells at 10 uM preincubated for 1 hr followed by bacterial infection and measured after 2 hrs by INT dye based LDH assay; assay type: functional, cell-based
Neutrophil [9] = assay: Inhibition of PMA-induced NETosis in human neutrophils at 25 uM preincubated for 30 mins followed by PMA stimulation and measured after 3 hrs by Hoechst […] staining based fluorescence microscopic analysis; assay type: functional, cell-based
Neutrophil [10] = assay: Inhibition of PMA-induced NETosis in human neutrophils at 2.5 uM preincubated for 30 mins followed by PMA stimulation and measured after 3 hrs by Hoechst […] staining based fluorescence microscopic analysis; assay type: functional, cell-based
Neutrophil [11] = assay: Inhibition of PMA-induced superoxide production in C57BL6 mouse neutrophils at 2.5 uM preincubated for 30 mins followed by PMA stimulation and measured after 30 mins by luminol-lucignenin based luminescence assay; assay type: functional, cell-based
Neutrophil [12] = assay: Inhibition of PMA-induced NETosis in human neutrophils assessed as inhibition of ROS production at 25 uM pretreated for 25 mins followed by PMA stimulation and measured after 20 mins by DCFH-DA based flow cytometry; assay type: functional, cell-based
Neutrophil [13] = assay: Inhibition of PMA-induced NETosis in human neutrophils assessed as reduction in lipid peroxidation at 2.5 uM preincubated for 30 mins followed by PMA stimulation measured after 30 mins by C11-Bodipy fluorescent dye based flow cytometry; assay type: functional, cell-based
Neutrophil [14] = assay: Inhibition of PMA-induced NETosis in human neutrophils at […] preincubated for 30 mins followed by PMA stimulation and measured after 3.5 hrs by Hoechst […] staining based fluorescence microscopic analysis; assay type: functional, cell-based

SMILES	IC50 (HL-60) [nM]	other results
CN1C(=O)C(N)=C(c2cn(C)c3ccccc23)C1=O	4500	
CC(=O)N(O)CCCCCNC(=O)CCC(=O)N(O)CCCCCNC(=O)CCC(=O)N(O)CCCCCN [DEFEROXAMINE]		IC50 (NIH3T3 [1]): 4900 nM; IC50 (NIH3T3 [2]): 9000 nM; inhibition (Neutrophil [3]): inactive; Activity (Neutrophil [4]): inactive; inhibition (Neutrophil [5]): inactive
C[C@H](NC1=C(c2cn(C)c3ccccc23)C(=O)N(C)C1=O)c1ccccc1	510	
CCCNC1=C(c2cn(C)c3ccccc23)C(=O)N(C2CCCC2)C1=O	280	
CCCCCNC1=C(c2cn(C)c3ccccc23)C(=O)N(C)C1=O		solubility at 0.5 h [6]: < 0.001 mM
CCCNC(=O)[C@H]1O[C@@H]1C(=O)N[C@H](C(=O)N1CCC[C@H]1C(=O)OC)[C@@H](C)CC		inhibition (THP-1 [7]): Active; inhibition (THP-1 [8]): Active
CN(C)C1=C(c2cn(C)c3ccccc23)C(=O)N(C)C1=O	4300	
CCCNC1=C(c2cn(C)c3ccccc23)C(=O)N(CC)C1=O	750	
CN1C(=O)C(NC(c2ccccc2)c2ccccc2)=C(c2cn(C)c3ccccc23)C1=O	1200	
CCCNC1=C(c2cn(C)c3ccccc23)C(=O)N(C(C)C)C1=O	34	
COc1ccc(CNC2=C(c3cn(C)c4ccccc34)C(=O)N(C)C2=O)cc1	860	
CCCNC1=C(c2cn(C)c3ccccc23)C(=O)N(Cc2ccccc2)C1=O	450	
CN1C(=O)C(c2cn(C)c3ccccc23)=C(N2CCCC2)C1=O	4700	
COc1ccccc1CNC1=C(c2cn(C)c3ccccc23)C(=O)N(C)C1=O	480	
CN1C(=O)C(NC(C)(C)C)=C(c2cn(C)c3ccccc23)C1=O	880	
CN1C(=O)C(NCc2cccc(Cl)c2)=C(c2cn(C)c3ccccc23)C1=O	280	
CN1C(=O)C(NCCN)=C(c2cn(C)c3ccccc23)C1=O.Cl		solubility at 0.5 h [6]: 71 mM
CCCNC1=C(c2cn(C)c3ccccc23)C(=O)N(C(CC)CC)C1=O	480	
CN1C(=O)C(NCc2ccccn2)=C(c2cn(C)c3ccccc23)C1=O	1300	
CN1C(=O)C(NC2CC2)=C(c2cn(C)c3ccccc23)C1=O	3800	
CN(C)CCNC1=C(c2cn(C)c3ccccc23)C(=O)N(C)C1=O	760	

SMILES	IC50 (HL-60) [nM]	other results
CN1C(=O)C(NCC2CCCCC2)=C(c2cn(C)c3ccccc23)C1=O	390	
CN1C(=O)C(NCc2ccccc2)=C(c2cn(C)c3ccccc23)C1=O	330	
CCCNC1=C(c2cn(C)c3ccccc23)C(=O)N(C(c2ccccc2)(c2ccccc2)c2ccccc2)C1=O	800	
CCCNC1=C(c2cn(C)c3ccccc23)C(=O)N(CCC)C1=O	610	
CN1C(=O)C(NCc2ccncc2)=C(c2cn(C)c3ccccc23)C1=O	1200	
CN1C(=O)C(NC2CCCCC2)=C(c2cn(C)c3ccccc23)C1=O	1000	
CCCCCN1C(=O)C(NCCC)=C(c2cn(C)c3ccccc23)C1=O	320	
CN1C(=O)C(NCc2ccc(Cl)cc2)=C(c2cn(C)c3ccccc23)C1=O	310	
CC(C)NC1=C(c2cn(C)c3ccccc23)C(=O)N(C)C1=O	480	
COc1cccc(CNC2=C(c3cn(C)c4ccccc34)C(=O)N(C)C2=O)c1	420	
CN1C(=O)C(NCCc2ccccc2)=C(c2cn(C)c3ccccc23)C1=O	650	
CCOC(=O)c1ccc(NC2CCCCC2)c(N)c1		IC50 (NIH3T3 [1]): 270 nM; IC50 (NIH3T3 [2]): 220 nM; inhibition (Neutrophil [9]): inactive; inhibition (Neutrophil [10]): inactive; inhibition (Neutrophil [11]): inactive; inhibition (Neutrophil [12]): inactive; inhibition (Neutrophil [13]): Active
CN1C(=O)C(NCc2ccccc2Cl)=C(c2cn(C)c3ccccc23)C1=O	1700	
CC(=O)N[C@@H](CS)C(=O)O		inhibition (Neutrophil [14]): inactive
CCCCCCCCCCCCCN1C(=O)C(NCCC)=C(c2cn(C)c3ccccc23)C1=O	400	
CN1C(=O)C(NCc2ccco2)=C(c2cn(C)c3ccccc23)C1=O	710	
C[C@@H](NC1=C(c2cn(C)c3ccccc23)C(=O)N(C)C1=O)c1ccccc1	390	
CN1C(=O)C(NCc2cccnc2)=C(c2cn(C)c3ccccc23)C1=O	1300	
CN1C(=O)C(NC2CCCC2)=C(c2cn(C)c3ccccc23)C1=O	300	
CCCCN1C(=O)C(NCCC)=C(c2cn(C)c3ccccc23)C1=O	350	
CN(C)CCCNC1=C(c2cn(C)c3ccccc23)C(=O)N(C)C1=O	610	

From ChEMBL document CHEMBL4304811, “Development of a Water-Soluble Indolylmaleimide Derivative IM-93 Showing Dual Inhibition of Ferroptosis and NETosis” (ACS Med Chem Lett, 2019)
